pKd: −log10 of the molar value.
What was measured:
Trastuzumab [1] = assay: Induction of polyreactivity of Trastuzumab by heme derivatives; format: binding; details: for induction of polyreactivity of Trastuzumab: exposure of Trastuzumab to the compound; for rank of potential to induce polyreactivity: reactivity towards bacterial antigens
Trastuzumab [2] = assay: Size-exclusion chromatography, induction of Trastuzumab oligomers by heme or heme analogues; format: physicochemical
immobilized Trastuzumab = assay: ELISA induction of antibody homophilicity by heme; format: binding
Description: The plates were blocked with PBS 0.25% containing Tween 20 for 1 hour. […] IgG was then diluted two times in PBS-T before incubation on plates for 2 h at room temperature. Following extensive washing, the plates were incubated for 30 min with streptavidin-HRP (Southern Biotech).
IgG was then diluted ten times in PBS-T before incubation on the plates for 2 h at room temperature.

Trastuzumab [3] = assay: SPR binding kinetics and thermodynamics of heme to immobilized Trastuzumab
Description: Trastuzumab was immobilized on a CMS sensor chip (Biacore) by using amine-coupling kit provided by the manufacturer. The Ab was diluted in 5 mM maleic acid (pH 4) to a final concentration of 10 μg/ml. The achieved immobilization level was 6300 resonance unit (RU). All measurements were performed using HBS-EP (0.01M HEPES, pH 7.4 containing 0.15 M NaCl, 3 mM EDTA and 0.05% Tween 20). Initially, a stock solution of heme (hemin, Frontiers Scientific, Logan, Utah) at 1 mM was prepared in 0.05 N NaOH. Heme was further diluted to 10 μM in the running buffer and 8 two-fold dilutions (10-0.078 μM) were injected at flow rate of 30 μl/min. The association and dissociation phases of the interaction were monitored for 5 min and 10 min, respectively. […]
Heme was diluted at 10 μM in HBS-EP and injected at flow rate of 30 ul/min. The association and dissociation phases of the interaction were monitored for 5 min and 10 min, respectively. […]
The kinetic rate constants obtained at different temperatures were used to build Arrhenius plots. The values of slopes of the Arrhenius plots were calculated by using a linear regression analysis of the experimental kinetic data and substituted in Equations 1-4,
Where the “slope”=∂1n(ka/d/∂(1/T), and where Ea is the activation energy. The enthalpy, entropy, and Gibbs free energy changes characterizing the association phase were calculated using Equations 2-4, […]

[4] = system: more than 9,000 human proteins; assay: Protein microarray (ProtoArray) reactivity; format: binding
Trastuzumab [5] = assay: Absorbance spectroscopy of heme with Trastuzumab; format: binding
Description: Absorbance spectra were measured by using UNICAM Helios b, UV-vis spectrophotometer. […] After addition of each heme aliquot and incubation for 2 min in dark, the absorbance spectra in the wavelength range 350-700 nm were recorded. The spectra were scanned at rate of 300 nm/min. All measurements were performed at room temperature, in quartz cuvettes with optical path of 1 cm.

Trastuzumab [6] = assay: Quenching of intrinsic tryptophan fluorescence of Trastuzumab by heme; format: binding
Description: The Ab was diluted to 0.1 μM in PBS and titrated with increasing concentrations (0, 0.01, 0.025, 0.05, 0.1, 0.2, 0.4, 0.8, 1.6 and 3.2 μM) of heme, added as aliquots from a stock solution. A wavelength of 295 nm was used to selectively excite tryptophan residues. Excitation and emission slits were both adjusted to 10 nm. […] Quartz cuvette with 1 cm optical path was used in the experiment. All measurements were performed at room temperature.

Trastuzumab [7] = assay: Circular dichroism of Trastuzumab exposed to heme; details: Ab 1 μM, heme 10 μM
Description: The CD spectra measurements were performed with JASCO-J710 Spectrometer. Data pitch and slit were both set to 1 nm. The data were recorded at scan speed on 10 nm/min in the range of 260-185 nm. […] The Ab was exposed or not to 10 μM concentration of heme. All spectra were acquired at 20° C. in quartz cuvettes with 1 mm optical path.

SKBR3 cells = assay: Direct and complement-mediated cytotoxicity (WST-1), SKBR3; format: cell-based, human; details: identical concentrations as introduced by heme-bound Trastuzumab
Description: (§1) Cells were treated on 96-wells plates with flat bottom and low evaporation lid (Coster, USA). MDA-MB-231 or SKBR3 breast cancer cells were plated and left for 2 hours to adhere. […] The Ab was diluted to a final concentration of 3.7 μg/ml. As a source of complement, baby rabbit complement (AbD Serotec) was added to obtain a dilution of ×5 (MDA-MB-231 cells) or ×8 (SKBR3 cells). As control, heat inactivated fetal calf serum was added at the same ratios. To evaluate the amount of alive cells, WST-1 dye (Roche) was added after 5 days of incubation at 37° C. The absorbance at 450 nm and 690 nm was read after 2 hours incubation at 37° C.

MDA-MB-231 cells = assay: Direct and complement-mediated cytotoxicity (WST-1), MDA-MB-231; format: cell-based, human; details: identical concentrations as introduced by heme-bound Trastuzumab
Description: as §1

In the case of `CC1=C(CCC(=O)O)c2cc3[n-]c(cc4nc(cc5[n-]c(cc1n2)c(CCC(=O)O)c5C)C(CCC(=O)O)=C4C)c(CCC(=O)O)c3C.[Fe+3]` [Fe (III) coproporphyrin I], the “induction of polyreactivity of Trastuzumab” value (Trastuzumab [1]) was “appearance of novel antigen-binding specificities”.

For `CC1=Cc2cc3[n-]c(cc4nc(cc5[n-]c(cc1n2)c(C)c5CCC(=O)O)C(CCC(=O)O)=C4C)cc3C.[Fe]` [Fe (III) deuteroporphyrin IX], the “induction of polyreactivity of Trastuzumab” value (Trastuzumab [1]) was “appearance of novel antigen-binding specificities” and the “rank of potential to induce polyreactivity” value (Trastuzumab [1]) was “most potent inducer of polyreactivity”.

In the case of `C=CC1=C(C)c2cc3[n-]c(cc4[n-]c(cc5nc(cc1n2)C(C)=C5C=C)c(C)c4CCC(=O)O)c(CCC(=O)O)c3C.[Zn+2]` [ZnPP, Zn (II) protoporphyrin IX, reference compound], the “induction of oligomerization / self-association of Trastuzumab” value (Trastuzumab [2]) was “failed to induced antibody homophilicity or oligomerization” and the “induction of antibody homophilicity by heme analog” value (immobilized Trastuzumab) was “failed to induced antibody homophilicity or oligomerization”.

In the case of `CCC1=C(C)C2=NC1=Cc1c(C)c(CC)c3[n]1[Fe][n]1c(c(C)c(CCC(=O)O)c1=CC1=NC(=C3)C(C)=C1CCC(=O)O)=C2` [Fe (III) mesoporphyrin IX], the “induction of polyreactivity of Trastuzumab” value (Trastuzumab [1]) was “appearance of novel antigen-binding specificities” and the “induction of oligomerization / self-association of Trastuzumab” value (Trastuzumab [2]) was “able to induce oligomerization of Trastuzumab”.

In the case of iron protoporphyrin IX [heme], the pKd (Trastuzumab [3]; SPR, heme to immobilized Trastuzumab) was 7.00, the “portion of the Ab binding heme” value (Trastuzumab [3]; immobilized Fab fragments, Fc fragments, heme 10 μM) was “preferential binding to the immobilized Fab portion” and the “binding to human proteins” value [4] was “able to bind to numerous human proteins, but to a lower extent”. For the same molecule, the “rank of potential to induce polyreactivity” value (Trastuzumab [1]) was “lowest potential”, the “change in absorbance spectrum” value (Trastuzumab [5]) was “increased absorbance intensity of heme in high and low energy regions of the spectrum” and the “quenching of tryptophan fluorescence” value (Trastuzumab [6]) was “concentration-dependent decrease in the fluorescence signal”. The “change of circular dichroism spectra” value (Trastuzumab [7]) was “Considerable changes of the circular dichroism ellipticity curves”, the “cell proliferation, heme alone” value (SKBR3 cells) was “no negative impact on the cell proliferation” and the “cell proliferation, heme alone” value (MDA-MB-231 cells) was “no negative impact on the cell proliferation”.
